Among the test systems are HCC-2998 colon; UACC-257 melanoma; HOP-62 NSCLC; U251 CNS; MOLT-4 leukemia; SK-MEL-5 melanoma; SF-268 CNS; OVCAR-4 ovarian; CAKI-1 renal; SW-620 colon.
Common to all, as to assay: NCI anticancer screen, dose series, 48 h

Structures are written as SMILES.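 Cultured in 96-well plates, cells were exposed to test compound for 48 hours across five concentrations. GI50 is the concentration that inhibits growth by half. TGI denotes the concentration required for complete inhibition of growth.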

With `CC(=O)C1=C(O)C=C2Oc3c(C(=O)/C=C/c4cc(C(F)(F)F)cc(C(F)(F)F)c4)c(O)c(C)c(O)c3[C@]2(C)C1=O`, the GI50 in the assay on HCC-2998 colon is 1.53 µM; with UACC-257 melanoma, 0.728 µM; in the assay with HOP-62 NSCLC, 1.18 µM; in the assay on U251 CNS it was 0.532 µM; in the assay with MOLT-4 leukemia, 0.437 µM; with SK-MEL-5 melanoma it was 0.444 µM. In addition, the GI50 with SF-268 CNS is 0.736 µM; in the assay on OVCAR-4 ovarian, 0.815 µM; in the assay with CAKI-1 renal it was 0.531 µM; in the assay on SW-620 colon, 0.553 µM. Besides, the TGI came to 3.63 µM in the assay on HCC-2998 colon; 4.54 µM with UACC-257 melanoma; 5.17 µM in the assay with HOP-62 NSCLC; 1.7 µM in the assay on U251 CNS; 15 µM in the assay with MOLT-4 leukemia; 1.27 µM in the assay on SK-MEL-5 melanoma. Moreover, the TGI with SF-268 CNS was 4.04 µM; in the assay with OVCAR-4 ovarian it was 11.3 µM; in the assay on CAKI-1 renal it was 4.83 µM; in the assay with SW-620 colon, 2.19 µM.
In the case of `C=C(CNC(=O)Nc1ccc(-c2ccccc2)cc1)c1ccc(C(=O)Nc2ccccc2N)cc1`, the GI50 is greater than 100 µM with HCC-2998 colon; greater than 100 µM in the assay with UACC-257 melanoma; 49.1 µM with HOP-62 NSCLC; 47.9 µM in the assay on U251 CNS; 30.5 µM in the assay on MOLT-4 leukemia; 94.3 µM in the assay on SK-MEL-5 melanoma. The GI50 in the assay with SF-268 CNS, with OVCAR-4 ovarian, with CAKI-1 renal and with SW-620 colon was greater than 100 µM throughout. Besides, the TGI with HCC-2998 colon, with UACC-257 melanoma, in the assay with HOP-62 NSCLC, in the assay on U251 CNS, in the assay with MOLT-4 leukemia and with SK-MEL-5 melanoma was greater than 100 µM throughout. For the same molecule, the TGI in the assay on SF-268 CNS, in the assay with OVCAR-4 ovarian, in the assay with CAKI-1 renal and in the assay on SW-620 colon was greater than 100 µM throughout.
On to `N#C/C(=C\c1ccccc1O)C(N)=O`, for which the TGI in the assay with HCC-2998 colon, in the assay with UACC-257 melanoma, with HOP-62 NSCLC, in the assay with U251 CNS, in the assay with MOLT-4 leukemia and with SK-MEL-5 melanoma was greater than 100 µM each time. Further, the TGI with SF-268 CNS, in the assay with OVCAR-4 ovarian, in the assay with CAKI-1 renal and in the assay with SW-620 colon was greater than 100 µM each time.
`CC(=O)N1CCN(C2=Nc3ccccc3CO2)C1=S`: the GI50 with HCC-2998 colon is 26.9 µM; with UACC-257 melanoma, greater than 100 µM; with HOP-62 NSCLC it was greater than 100 µM; in the assay on U251 CNS, greater than 100 µM; with MOLT-4 leukemia, 41.9 µM; with SK-MEL-5 melanoma, 20.4 µM. For the same molecule, the GI50 in the assay on SF-268 CNS is greater than 100 µM; in the assay with OVCAR-4 ovarian it was 65.3 µM; in the assay on CAKI-1 renal, greater than 100 µM; in the assay with SW-620 colon it was 92.5 µM. Also, the TGI is 97.2 µM with HCC-2998 colon; greater than 100 µM in the assay with UACC-257 melanoma; greater than 100 µM in the assay with HOP-62 NSCLC; greater than 100 µM in the assay on U251 CNS; greater than 100 µM in the assay with MOLT-4 leukemia; 48.4 µM in the assay on SK-MEL-5 melanoma. Further, the TGI with SF-268 CNS, with OVCAR-4 ovarian, in the assay on CAKI-1 renal and in the assay on SW-620 colon was greater than 100 µM each time.
Turning to `CC1CC2C3CC(F)C4=CC(=O)C=CC4(C)C3(F)C(O)CC2(C)C1(O)C(=O)COC(=O)C(C)(C)C` (stereo not given), the TGI with HCC-2998 colon, with UACC-257 melanoma, in the assay with HOP-62 NSCLC, with U251 CNS, in the assay with MOLT-4 leukemia and with SK-MEL-5 melanoma was greater than 100 µM throughout. Also, the TGI with SF-268 CNS, with OVCAR-4 ovarian, in the assay on CAKI-1 renal and in the assay on SW-620 colon was greater than 100 µM in each case.
In the case of `COc1cc(/C(Cl)=C/C=C/C(=O)c2c(C)[n+]([O-])c3ccc(Cl)cc3[n+]2[O-])cc(OC)c1OC`, the GI50 is 16.7 µM in the assay on HCC-2998 colon; 16.6 µM in the assay with UACC-257 melanoma; 7.68 µM in the assay on HOP-62 NSCLC; 2.57 µM in the assay on U251 CNS; 1.35 µM with MOLT-4 leukemia; 9.44 µM in the assay with SK-MEL-5 melanoma. Further, the GI50 in the assay on SF-268 CNS is 5.54 µM; in the assay on OVCAR-4 ovarian, 5.07 µM; in the assay with CAKI-1 renal, 1.66 µM; in the assay on SW-620 colon it was 2.24 µM. In addition, the TGI was greater than 50 µM with HCC-2998 colon; greater than 50 µM in the assay on UACC-257 melanoma; 24.4 µM with HOP-62 NSCLC; 10.5 µM in the assay with U251 CNS; 3.56 µM in the assay on MOLT-4 leukemia; greater than 50 µM in the assay on SK-MEL-5 melanoma. Further, the TGI with SF-268 CNS is 14.2 µM; with OVCAR-4 ovarian, greater than 50 µM; in the assay with CAKI-1 renal, 10.6 µM; with SW-620 colon it was 9.78 µM.
`Cc1[nH]ncc1-c1cc2nc(C3CC4CCN3CC4)[nH]c(=O)c2s1` (stereo not given): the GI50 in the assay with HCC-2998 colon is 7.09 µM; in the assay on UACC-257 melanoma, 5.79 µM; in the assay with HOP-62 NSCLC, 2.83 µM; in the assay with U251 CNS, 2.52 µM; in the assay on MOLT-4 leukemia it was 5.52 µM; in the assay on SK-MEL-5 melanoma, 2.77 µM. Besides, the GI50 with SF-268 CNS was 3.8 µM; in the assay with OVCAR-4 ovarian, 9.68 µM; in the assay on CAKI-1 renal, 2.43 µM; in the assay with SW-620 colon it was 2.65 µM. Further, the TGI in the assay with HCC-2998 colon was greater than 100 µM; with UACC-257 melanoma, 84 µM; in the assay on HOP-62 NSCLC, greater than 100 µM; with U251 CNS, greater than 100 µM; in the assay on MOLT-4 leukemia it was greater than 100 µM; with SK-MEL-5 melanoma, 52.9 µM. Further, the TGI with SF-268 CNS, in the assay on OVCAR-4 ovarian, in the assay on CAKI-1 renal and in the assay on SW-620 colon was greater than 100 µM each time.
`CCCCCCCCCCCOC(=S)NC(C)C`: the TGI in the assay on HCC-2998 colon was 31.1 µM; in the assay with UACC-257 melanoma, 42.6 µM; in the assay on HOP-62 NSCLC it was 36.6 µM; in the assay with U251 CNS it was 30.2 µM; in the assay on MOLT-4 leukemia, 36.2 µM; in the assay on SK-MEL-5 melanoma, 31.2 µM. Besides, the TGI was 42.7 µM in the assay on SF-268 CNS, 52 µM with OVCAR-4 ovarian, 39.9 µM with CAKI-1 renal and 30.2 µM in the assay on SW-620 colon.
As to `OCCOc1ccc(-c2cc(-c3ccccn3)nc(-c3ccccn3)c2)cc1`, the TGI is greater than 18.4 µM in the assay on HCC-2998 colon; 12.9 µM in the assay with UACC-257 melanoma; greater than 18.9 µM with HOP-62 NSCLC; greater than 100 µM with U251 CNS; 22.6 µM in the assay on MOLT-4 leukemia; 8.54 µM in the assay with SK-MEL-5 melanoma. The TGI was greater than 100 µM in the assay on SF-268 CNS, greater than 100 µM in the assay with OVCAR-4 ovarian, 17.7 µM in the assay with CAKI-1 renal and greater than 100 µM in the assay on SW-620 colon.
Turning to `O=C(c1ccc2ccccc2c1O)N1CCCCC1`, the TGI was greater than 100 µM in the assay with HCC-2998 colon; greater than 100 µM in the assay on UACC-257 melanoma; greater than 100 µM in the assay with HOP-62 NSCLC; greater than 100 µM in the assay on U251 CNS; 59.3 µM in the assay with MOLT-4 leukemia; greater than 100 µM in the assay with SK-MEL-5 melanoma. For the same molecule, the TGI with SF-268 CNS, in the assay on OVCAR-4 ovarian, in the assay with CAKI-1 renal and in the assay on SW-620 colon was greater than 100 µM throughout.
Take `Cc1ccccc1NC(=S)Nc1ccccn1`: the GI50 in the assay with HCC-2998 colon was greater than 100 µM; with UACC-257 melanoma it was greater than 100 µM; in the assay with HOP-62 NSCLC, greater than 100 µM; with U251 CNS, greater than 100 µM; in the assay with MOLT-4 leukemia, greater than 100 µM; with SK-MEL-5 melanoma, 47.2 µM. Further, the GI50 in the assay with SF-268 CNS was greater than 100 µM; with OVCAR-4 ovarian, 72.5 µM; in the assay with CAKI-1 renal, greater than 100 µM; in the assay with SW-620 colon, greater than 100 µM. For the same molecule, the TGI in the assay with HCC-2998 colon, in the assay on UACC-257 melanoma, in the assay with HOP-62 NSCLC, in the assay on U251 CNS, in the assay with MOLT-4 leukemia and with SK-MEL-5 melanoma was greater than 100 µM throughout. In addition, the TGI with SF-268 CNS, with OVCAR-4 ovarian, with CAKI-1 renal and in the assay with SW-620 colon was greater than 100 µM each time.
In the case of `Cc1cc(C)nc(NC(N)=NCCc2ccccc2)n1`, the GI50 in the assay on HCC-2998 colon was 8.41 µM; in the assay on UACC-257 melanoma, 2.64 µM; in the assay with HOP-62 NSCLC, 3.16 µM; in the assay with U251 CNS it was 3.15 µM; in the assay with MOLT-4 leukemia, 6.01 µM; with SK-MEL-5 melanoma, 1.75 µM. The GI50 was 3.4 µM in the assay on SF-268 CNS, 5.35 µM with OVCAR-4 ovarian, 19.4 µM with CAKI-1 renal and 3.51 µM in the assay with SW-620 colon. The TGI in the assay on HCC-2998 colon was 30.6 µM; in the assay with UACC-257 melanoma, 39.4 µM; in the assay on HOP-62 NSCLC, 53.1 µM; in the assay with U251 CNS, greater than 100 µM; with MOLT-4 leukemia, greater than 100 µM; in the assay on SK-MEL-5 melanoma, 5.39 µM. Besides, the TGI was 41.9 µM with SF-268 CNS, greater than 100 µM with OVCAR-4 ovarian, 97.5 µM in the assay with CAKI-1 renal and greater than 100 µM with SW-620 colon.
With `C[n+]1c(/C=C\C=C\N2CCCCC2)sc2ccccc21`, the GI50 is 0.451 µM in the assay with HCC-2998 colon; 0.278 µM in the assay on UACC-257 melanoma; 2.26 µM with HOP-62 NSCLC; 0.291 µM in the assay on U251 CNS; 0.401 µM in the assay on MOLT-4 leukemia; 0.276 µM with SK-MEL-5 melanoma. Besides, the GI50 with SF-268 CNS was 0.457 µM; in the assay on OVCAR-4 ovarian it was 0.479 µM; in the assay on CAKI-1 renal, 4.8 µM; in the assay on SW-620 colon, 0.513 µM. The TGI in the assay with HCC-2998 colon was 14.1 µM; in the assay with UACC-257 melanoma, 2.18 µM; in the assay on HOP-62 NSCLC it was greater than 38.2 µM; in the assay on U251 CNS it was 15 µM; in the assay with MOLT-4 leukemia it was 9.42 µM; in the assay with SK-MEL-5 melanoma, 1.5 µM. Moreover, the TGI was 14.8 µM in the assay on SF-268 CNS, greater than 42.4 µM in the assay on OVCAR-4 ovarian, 28.9 µM in the assay with CAKI-1 renal and 14.9 µM in the assay with SW-620 colon.
